Data taken from patent publication US9764048B2, “Targeted molecular imaging probe and method for in vivo molecular imaging” (priority 2012, dated 2017).
“Also recorded” adds a separate entry of the source. *1 amine or outer side, *2 acyl side, *3 side chain or, on linkers, in order; H or OH if unused. Where a SMILES comes first, the peptide text is derived from it. Where no end group is shown, it is not given here. [ ]: non-standard residue; d: D form. ξ: configuration not given here. X1 = O=C(C1C[C@H](O)CN1[*:1])[*:2]; Hyp = O=C(O)[C@@H]1C[C@@H](O)CN1; ξY = NC(Cc1ccc(O)cc1)C(=O)O; ξP = O=C(O)C1CCCN1; ξA = CC(N)C(=O)O

Experiments:
myocardial gap junctions = test: Fluorescence microscopy of frozen tissue sections after tail vein injection of the probe; format: in vivo; details: 1 h after tail vein injection
From the text: Meanwhile, frozen sections of tissue were further prepared and imaged under a fluorescence microscope. By using muscle as a control (FIGS. 3-a, 3-b, and 3-c), the distribution profile of the probe Cy5.5-Cx43SP in heart was observed under a fluorescence microscope.

HeLa tumor = test: Optical tumor imaging of nude mice bearing tumor, control xenograft; format: in vivo, nude mouse; details: near-infrared fluorescent imaging, 1 h after tail vein injection
Method: (§1) HeLa-Cx43 cells overexpressing Cx43 were used to establish a subcutaneous xenograft model in nude mouse (FIG. 9, left), and the conventional subcutaneous xenograft model of HeLa cells without transfection of Cx43 were used as control group (FIG. 9, right). In vivo Cy5.5-Cx43SP1 near-infrared fluorescent imaging of tumor was carried out.

HeLa-Cx43 cells [1] = test: Cy5.5-Cx43SP1 cells binding and blocking experiment; format: cell-based; details: for binding / uptake of probe by HeLa-Cx43 cells: Cy5.5-Cx43SP1 500 nmol/L, fluorescence microscopy
From the text: (§2) 1) Establishment of a Cx43 highly expressing cell line: Cervical cancer HeLa cells were transfected by Cx43 gene, and cervical cancer tumor cell lines HeLa-Cx43 overexpressing Cx43 was successfully prepared. Non-transgenic HeLa cells (without C43 expression) were used as control.
(§3) 2) Cy5.5-Cx43SP1 cells binding and blocking experiment: HeLa-Cx43 cells and the control group HeLa-Control cells were applied onto a 12-well plate in an amount of 0.5×10^6/well one day prior to experiment, and were classified into four groups: Group A: HeLa-Cx43 cells group, Group B: HeLa-Control cells group, Group C: HeLa-Cx43 cells blocking group, Group D: HeLa-Control cells blocking group. Each group comprises 3 wells and the experiment was repeated for 3 times. Into each well was added Cy5.5-Cx43SP1 with a concentration of 500 nmol/L and an amount of 1 ml. Unlabeled Cx43SP1 was added into blocking groups with a concentration of 5 μmol/L.

HeLa-Control cells [2] = test: Cy5.5-Cx43SP1 cells binding and blocking experiment, control cells; format: cell-based; details: for binding / uptake of probe by control HeLa cells: Cy5.5-Cx43SP1 500 nmol/L, HeLa without Cx43 transfection
From the text: as §2, §3

[3] = test system: HeLa-Cx43 tumor overexpressing Cx43; test: Optical tumor imaging of nude mice bearing tumor; format: in vivo, nude mouse; details: near-infrared fluorescent imaging, 1 h after tail vein injection
Method: as §1

[4] = Biological distribution of Cy5.5-Cx43SP in normal mice, ex vivo near-infrared fluorescent imaging of main organs; details: mouse
Method: 1 hour after injection of Cy5.5-Cx43SP, the mice were sacrificed, and their organs were taken out to perform ex vivo near-infrared fluorescent imaging of main organs. […] Especially, the relatively high uptake by heart is highly consistent with the fact that normal heart express relatively high Cx43 (FIG. 6).

HeLa-Cx43 cells [5] = test: ^64Cu-NODA-Cx43SP1 cells binding and blocking experiment; format: cell-based
From the text: as §2
(§4) HeLa-Cx43 cells and control group HeLa-Control cells were applied onto a 12-well plate in an amount of 0.5×10^6/well one day prior to experiment, and were classified into four groups: Group A: HeLa-Cx43 cells group, Group B: HeLa-Control cells group, Group C: HeLa-Cx43 cells blocking group, Group D: HeLa-Control cells blocking group. Each group comprises 3 wells, and the experiment was repeated for 3 times. Into each well was added ^64Cu-NODA-Cx43SP1 with a concentration of 3.2 μCi/well and an amount of 1 ml. Unlabeled NODA-Cx43SP1 was added into the blocking groups with a concentration of 50 μg/well (10 times of ^64Cu-NODA-Cx43SP1).

HeLa-Control cells [6] = test: ^64Cu-NODA-Cx43SP1 cells binding and blocking experiment, control cells; format: cell-based; details: 3.2 μCi/well, HeLa without Cx43 transfection
From the text: as §2, §4

[7] = cited from earlier work

## Cy5.5-Cx43SP1: Cx43SP1 labeled with near-infrared fluorescent dye Cy5.5 via Cy5.5-NHS (GAPG[Hyp]PY; also: Cy5.5 coupled via Cy5.5-NHS, site not given here)
Myocardial gap junctions; frozen section of muscle
  gathering of probe in muscular tissue (control): not gathered in the muscular tissue
Myocardial gap junctions; frozen section of myocardium
  gathering of probe in myocardial tissue: gathered in the myocardial tissue in large amount
  location of probe within myocardium: mainly distributed at the location of gap junctions between myocardial cells
HeLa tumor
  gathering of probe at control HeLa tumor: no obvious gather; also recorded: not concentrated at the HeLa tumor site
HeLa-Cx43 cells [1]
  binding / uptake of probe by HeLa-Cx43 cells: significant specific binding
HeLa-Cx43 cells [1]; listed as Cy5.5-Cx43SP
  binding / uptake of probe by HeLa-Cx43 cells: uptake a large amount
HeLa-Cx43 cells [1]; blocking with excess unlabeled Cx43SP 5 μmol/L
  binding / uptake by HeLa-Cx43 cells after blocking: substantially reduced; also recorded: decreases significantly
HeLa-Control cells [2]
  binding / uptake of probe by control HeLa cells: no binding
HeLa-Control cells [2]; listed as Cy5.5-Cx43SP
  binding / uptake of probe by control HeLa cells: not uptaken
HeLa-Control cells [2]; blocking with excess unlabeled Cx43SP
  uptake by control HeLa cells after blocking: still do not uptake
[3]
  gathering of probe at HeLa-Cx43 tumor: gathered in the location of HeLa-Cx43 tumor overexpressing Cx43 in high concentration; also recorded: gathered at tumor site of HeLa-Cx43 overexpressing Cx43 in large amount
[4]; 1 h after injection
  excretion route: mainly excreted through liver and intestinal tract, and partly through kidney and urinary system; also recorded: mostly excreted via liver and intestinal tract
[4]; 1 h after tail vein injection, ex vivo organs
  organ distribution of probe: mainly distributed in heart, liver, gastrointestinal tract; also recorded: significantly gathered in the heart, stomach, liver, gall bladder and intestinal tract

## ^64Cu-NODA-Cx43SP1: NODA-modified Cx43SP1 labeled with ^64Cu, PET probe (GAPG[Hyp]PY; also: NODA chelator carrying 64Cu, site not given here)
HeLa-Cx43 cells [5]; 3.2 μCi/well
  binding of probe to HeLa-Cx43 cells: significant specific binding
HeLa-Cx43 cells [5]; unlabeled NODA-Cx43SP1 50 μg/well
  binding to HeLa-Cx43 in the blocking experiment: substantially reduced
HeLa-Control cells [6]
  binding of probe to control HeLa cells: no binding

## CC(NC(=O)CN)C(=O)NCC(=O)N1C[C@@H](O)CC1C(=O)N1CCCC1C(=O)NC(Cc1ccc(O)cc1)C(N)=O (stereo partly drawn) [AAP10, Gly-Ala-Pro-Gly-4 Hyp-Pro-Tyr] (H-G[ξA]G[X1][ξP][ξY]-NH2)
[7]
  stability in plasma: not stable in plasma
